Test results taken from article PMC8876511, “Two out of Three Musketeers Fight against Cancer: Synthesis, Physicochemical, and Biological Properties of Phosphino Cu^I, Ru^II, Ir^III Complexes” (Pharmaceuticals, 2022).

Columns and labels:
Solubility (qualitative) = assay type: physicochemical
MCF-7 cells = assay: MTT cytotoxicity assay, MCF-7; assay type: cell-based, human
Method: (§1) Moreover, to investigate the activity of synthesized complexes as potential anticancer agents, their cytotoxicity toward a series of human cancer cell lines and a non-cancer cell line (HaCaT) was evaluated using the MTT assay. […] In addition, we also determined the cytotoxic activity of free ligands toward selected cancer cells. […] However, this effect depends on the cell line. […] The best values of cytotoxic activity of compounds have been obtained after 72 h of cell incubation. Additionally, synthesized complexes had high sensitivity to A549 cells, so this cell line was selected as the research subject for antitumor activity.
(§2) MCF7 cell line (human breast adenocarcinoma, morphology: epithelial-like, ATCC: HTB-22) and A549 cell line (human lung adenocarcinoma, morphology: epithelial, ATCC: CCL-185); HaCaT (human keratinocyte) were cultured in Dulbecco’s Modified Eagle’s Medium (DMEM, Corning, Poland) with phenol red, supplemented with 10% fetal bovine serum (FBS) and with 1% streptomycin/penicillin. Du-145 cell line (human prostate carcinoma); derived from metastatic site: brain was cultured in minimum essential medium (MEM, Corning) with only 10% fetal bovine serum (FBS). Cultures were incubated at 37 °C under a humidified atmosphere containing 5% CO2. Cells were passaged using a solution containing 0.05% trypsin and 0.5 mM EDTA. All media and other ingredients were purchased from ALAB, Poland.
(§3) Since most of the studied compounds are insoluble in aqueous media (Dulbecco’s Modified Eagle’s Medium or minimum essential medium (MEM, Corning), therefore, they needed to be pre-dissolved in DMSO for biological tests. DMSO concentration was kept below 1% in each tested concentration of each compound. […] In brief, 5×10^3 per well (0.2 mL) in the two first approaches, while 1×10^4 cells in the case of longer incubation time were seeded in 96-well flat-bottom microtiter plate, were incubated with the tested complexes at various ranges of concentrations. […] Various compound concentrations (dilutions in proper medium supplemented with 1% FBS) were tested in five replicates and repeated at least three times. Determined values of IC50 (concentration of a drug required to inhibit the growth of 50% of the cells) are given as mean + S.D. (Standard Deviation). IC50 values were determined, from the plots of cell viability in the presence of various concentrations of each compound by matching dose–response curves and using the Origin 9.0 software. Furthermore, post-treatment survival assessment of the treated cells was analyzed under an inverted fluorescence microscope (Olympus IC51, Japan) with an excitation filter 470/20 nm. For this, cells were stained with two versatile fluorescence dyes: fluorescein diacetate (FDA, 5 mg/mL) and propidium iodide (PI, 5 mg/mL) in standard conditions in the dark for 20 min. Before visualization, dyes were removed and cells were washed with PBS twice.

Du-145 cells = assay: MTT cytotoxicity assay, Du-145; assay type: cell-based, human
Method: as §1, §2, §3

A549 cells [1] = assay: MTT cytotoxicity assay, A549; assay type: cell-based, human
Method: as §1, §2
(§4) Since most of the studied compounds are insoluble in aqueous media (Dulbecco’s Modified Eagle’s Medium or minimum essential medium (MEM, Corning), therefore, they needed to be pre-dissolved in DMSO for biological tests. DMSO concentration was kept below 1% in each tested concentration of each compound. Cytotoxicity was assessed by MTT assay performed according to the protocols described previously in the following experimental approaches: 6 h + 24 h, 24 h + 24 h, and 72 h + 24 h. In brief, 5×10^3 per well (0.2 mL) in the two first approaches, while 1×10^4 cells in the case of longer incubation time were seeded in 96-well flat-bottom microtiter plate, were incubated with the tested complexes at various ranges of concentrations. After an appropriate incubation time of 6, 24, or 72 h, the cells were washed thee time with PBS and fresh medium was applied for a further 24 h in each approach. Various compound concentrations (dilutions in proper medium supplemented with 1% FBS) were tested in five replicates and repeated at least three times. Determined values of IC50 (concentration of a drug required to inhibit the growth of 50% of the cells) are given as mean + S.D. (Standard Deviation). IC50 values were determined, from the plots of cell viability in the presence of various concentrations of each compound by matching dose–response curves and using the Origin 9.0 software. Furthermore, post-treatment survival assessment of the treated cells was analyzed under an inverted fluorescence microscope (Olympus IC51, Japan) with an excitation filter 470/20 nm. For this, cells were stained with two versatile fluorescence dyes: fluorescein diacetate (FDA, 5 mg/mL) and propidium iodide (PI, 5 mg/mL) in standard conditions in the dark for 20 min. Before visualization, dyes were removed and cells were washed with PBS twice.

PANC-1 cells [2] = assay: MTT cytotoxicity assay, PANC-1; assay type: cell-based, human
Method: as §1, §4

HaCaT cells [3] = assay: MTT cytotoxicity assay, HaCaT (non-cancer); assay type: cell-based, human
Method: as §1, §2, §4

[4] = Partition coefficient, shake-flask method (n-octanol/PBS); assay type: physicochemical
Method: The partition coefficient was determined by the shake-flask method. A small amount of compound was dissolved in 5 mL PBS-saturated n-octanol. The sample was sonicated until all the compound was dissolved. Next, 5 mL of PBS saturated with n-octanol was added and the experiment proceeded as before. The resulting mixture was vortexed for 30 min in horizontal position. The sample was centrifuged for 2 min at 3700 rpm to obtain a phase separation. Next, 2 mL of each phase was taken. The next steps were a 5 min sonication and measurement of absorption spectra of the obtained solutions. The calibration curve was prepared in order to determine the concentration of the tested compounds in individual solutions. It was made using the absorption intensity of the compounds in series dilution solutions in PBS saturated with octanol or octanol saturated with PBS in the concentration range c = 1–100 nM.

A549 cells [5] = assay: MTT cytotoxicity assay, A549; assay type: cell-based, human; remark: listed apart in the source
PANC-1 cells [6] = assay: MTT cytotoxicity assay, PANC-1; assay type: cell-based, human; remark: listed apart in the source
HaCaT cells [7] = assay: MTT cytotoxicity assay, HaCaT (non-cancer); assay type: cell-based, human; settings: 48 h
[8] = Stability towards atmospheric oxygen (UV-Vis); assay type: physicochemical
Method: Oxidation of copper(I) to copper(II) was observed within 12 h using UV-Vis spectroscopy (Figure 1) that was additionally conformed by color of the copper(I) inorganic compound solution changing from transparent to green. Additionally, oxidation of phosphines ligands (1, 2) was observed. It is worth mentioning that copper(I) ions can easily undergo oxidation processes. The instability of copper(I) complexes prevented us from evaluating their biological activity.

Row | Molecule | solubility in mixture of H2O:DMSO (100:1) (Solubility (qualitative)) | IC50 (MCF-7 cells; 24 h) [µM] | IC50 (MCF-7 cells; 48 h) [µM] | IC50 (MCF-7 cells; 72 h) [µM] | IC50 (Du-145 cells; 24 h) [µM] | IC50 (Du-145 cells; 48 h) [µM] | IC50 (Du-145 cells; 72 h) [µM] | IC50 (A549 cells [1]; 24 h) [µM] | IC50 (A549 cells [1]; 72 h) [µM] | IC50 (PANC-1 cells [2]; 24 h) [µM] | IC50 (PANC-1 cells [2]; 72 h) [µM] | IC50 (HaCaT cells [3]; 24 h) [µM] | IC50 (HaCaT cells [3]; 72 h) [µM] | IC50 (A549 cells [5]; 48 h) [µM] | IC50 (PANC-1 cells [6]; 48 h) [µM] | IC50 (HaCaT cells [7]) [µM] | IC50 (MCF-7 cells; Homo sapiens, MCF7, 48 h) [µM] | IC50 (MCF-7 cells; Homo sapiens, MCF7, 72 h) [µM] | IC50 (Du-145 cells; Homo sapiens, DU-145, 72 h) [µM] | IC50 (A549 cells [1]; Homo sapiens, A549, 72 h) [µM] | further results
1 | CC#N.CC#N.CCN(CC)CP(c1ccccc1)c1ccccc1.CCN(CC)CP(c1ccccc1)c1ccccc1.F[B-](F)(F)F.[Cu+] [1c, [Cu(NCCH3)2(Ph2PCH2N(CH2CH3)2)2]^+BF4^−] | well soluble |  |  |  |  |  |  |  |  |  |  |  |  |  |  |  |  |  |  |  | 
2 | CCCCN(CCCC)C[P+](c1ccccc1)(c1ccccc1)[Ir-3]([Cl])([Cl])[C]1(C)C(C)=C(C)C(C)=C1C [2a, Ir(η^5-Cp*)Cl2Ph2PCH2N(CH2CH2CH2CH3)2] |  | 125 ± 15 | 189 ± 20 | 56 ± 6 | 69 ± 6 | 69 ± 8 | 13 ± 2 | 79 ± 6 | 16 ± 3 | 106 ± 5 | 85 ± 16 | 559 ± 25 | 302 ± 22 | 61 ± 3 | 198 ± 20 | 420 ± 12 |  |  |  |  | Experimental LogP (logPo/w) [4]: 4.0
3 | CC#N.CC#N.CCCCN(CCCC)CP(c1ccccc1)c1ccccc1.CCCCN(CCCC)CP(c1ccccc1)c1ccccc1.F[B-](F)(F)F.[Cu+] [2c, [Cu(NCCH3)2(Ph2PCH2N(CH2CH2CH2CH3)2)2]^+BF4^−] | well soluble |  |  |  |  |  |  |  |  |  |  |  |  |  |  |  |  |  |  |  | 
4 | N.N.[Cl][Pt][Cl] [Cisplatin, reference compound] |  | 176 ± 5 | 151 ± 6 | 64 ± 4 | 85 ± 7 | 81 ± 8 | 50 ± 2 | 70 ± 8 | 11 ± 3 | 166 ± 20 | 79 ± 5 | 400 ± 3 | 102 ± 2 | 66 ± 9 | 131 ± 7 | 362 ± 4 |  |  |  |  | 
5 | CCN(CC)CP(c1ccccc1)c1ccccc1 [compound 1, Ph2PCH2N(CH2CH3)2] |  |  |  |  |  |  |  |  |  |  |  |  |  |  |  |  | 149 ± 13 | 192 ± 20 | 86 ± 6 | 183 ± 12 | IC50 (MCF-7 cells; Homo sapiens, MCF7, 24 h): 458 ± 11 µM; IC50 (Du-145 cells; Homo sapiens, DU-145, 24 h): 203 ± 19 µM; IC50 (A549 cells [1]; Homo sapiens, A549, 24 h): 620 ± 9 µM; IC50 (PANC-1 cells [2]; Homo sapiens, PANC-1, 24 h): 426 ± 7 µM; IC50 (PANC-1 cells [2]; Homo sapiens, PANC-1, 72 h): 185 ± 12 µM; IC50 (HaCaT cells [3]; Homo sapiens, HaCaT, 24 h): 646 ± 20 µM; IC50 (HaCaT cells [3]; Homo sapiens, HaCaT, 72 h): 490 ± 12 µM; sensitivity to oxidation in solution [8]: extremely sensitive to oxidation in solution; solubility in H2O (Solubility (qualitative)): moderately; IC50 (A549 cells [5]; Homo sapiens, A549, 48 h): 47 ± 5 µM; IC50 (HaCaT cells [7]; Homo sapiens, HaCaT): 458 ± 20 µM
6 | CCCCN(CCCC)CP(c1ccccc1)c1ccccc1 [compound 2, Ph2PCH2N(CH2CH2CH2CH3)2] |  |  |  |  |  |  |  |  |  |  |  |  |  |  |  |  | 125 ± 20 | 285 ± 11 | 57 ± 4 | 158 ± 11 | IC50 (MCF-7 cells; Homo sapiens, MCF7, 24 h): 355 ± 13 µM; IC50 (Du-145 cells; Homo sapiens, DU-145, 24 h): 185 ± 12 µM; IC50 (Du-145 cells; Homo sapiens, DU-145, 48 h): 54 ± 8 µM; IC50 (A549 cells [1]; Homo sapiens, A549, 24 h): 569 ± 11 µM; IC50 (PANC-1 cells [2]; Homo sapiens, PANC-1, 24 h): 386 ± 6 µM; IC50 (PANC-1 cells [2]; Homo sapiens, PANC-1, 72 h): 142 ± 20 µM; IC50 (HaCaT cells [3]; Homo sapiens, HaCaT, 24 h): 556 ± 13 µM; IC50 (HaCaT cells [3]; Homo sapiens, HaCaT, 72 h): 448 ± 25 µM; sensitivity to oxidation in solution [8]: extremely sensitive to oxidation in solution; solubility in H2O (Solubility (qualitative)): moderately; IC50 (A549 cells [5]; Homo sapiens, A549, 48 h): 72 ± 6 µM; IC50 (PANC-1 cells [6]; Homo sapiens, PANC-1, 48 h): 158 ± 23 µM; IC50 (HaCaT cells [7]; Homo sapiens, HaCaT): 420 ± 11 µM
7 | CCCCNCCCC [dibutylamine] |  |  |  |  |  |  |  |  |  |  |  |  |  |  |  |  | 226 ± 20 | > 1000 | > 1000 | > 1000 | IC50 (Du-145 cells; Homo sapiens, DU-145, 48 h): 103 ± 7 µM; IC50 (PANC-1 cells [2]; Homo sapiens, PANC-1, 72 h): > 1000 µM; IC50 (HaCaT cells [3]; Homo sapiens, HaCaT, 72 h): > 1000 µM; IC50 (A549 cells [5]; Homo sapiens, A549, 48 h): 387 ± 25 µM; IC50 (PANC-1 cells [6]; Homo sapiens, PANC-1, 48 h): 258 ± 6 µM; IC50 (HaCaT cells [7]; Homo sapiens, HaCaT): 445 ± 25 µM
8 | CCNCC [diethylamine] |  |  | 352 ± 25 | > 1000 |  | 126 ± 12 | > 1000 |  | > 1000 |  | > 1000 |  | > 1000 | 425 ± 38 | 305 ± 13 | 545 ± 33 |  |  |  |  | 
9 | Ru(η^6-p-cymene)Cl2Ph2PCH2N(CH2CH2CH2CH3)2 [2b] | well soluble | 226 ± 20 | 226 ± 20 | 121 ± 20 | 102 ± 6 | 103 ± 7 | 17 ± 3 | 81 ± 4 | 14 ± 2 | 126 ± 6 | 112 ± 18 | 545 ± 13 | 347 ± 25 | 387 ± 25 | 258 ± 6 | 445 ± 25 |  |  |  |  | Experimental LogP (logPo/w) [4]: 3.84
